Our source for the IC50 values is US20240208968A1, “ALPHA V BETA 6 AND ALPHA V BETA 1 INTEGRIN INHIBITORS AND USES THEREOF” (DiCE Molecules SV, Inc., priority 2021, published 2024).

The target in one test is αvβ1 (Homo sapiens, UniProt P05556+P06756). As to the kind of experiment: Solid Phase Integrin αvβ1 Assay. In kind it is binding. The method in brief: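 Wells coated with 1 µg/mL recombinant TGFb1-LAP and blocked with 2% BSA/TBST, 1 mM MnCl2; αvβ1 (added at 0.2 µg/mL) and compound incubated 90 min at room temperature. Bound integrin detected by streptavidin-HRP (20 min) and TMB after Mn-containing washes; IC50 by four-parameter logistic fit.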

The target in another test is αvβ6 (Homo sapiens, UniProt P06756+P18564). Nature of the test: Solid Phase Integrin αvβ6 Assay. Type of test: binding. An outline of the steps:
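Plates coated with 1 μg/mL recombinant TGFb1-LAP; compounds and αvβ6 (0.2 μg/mL diluted stock) incubated 1 h at room temperature in 2% BSA/TBST with 1 mM MnCl2. Bound integrin detected with streptavidin-HRP and TMB; IC50 from four-parameter logistic fits.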

αvβ1, sequence (P06756 31-992 limits assumed): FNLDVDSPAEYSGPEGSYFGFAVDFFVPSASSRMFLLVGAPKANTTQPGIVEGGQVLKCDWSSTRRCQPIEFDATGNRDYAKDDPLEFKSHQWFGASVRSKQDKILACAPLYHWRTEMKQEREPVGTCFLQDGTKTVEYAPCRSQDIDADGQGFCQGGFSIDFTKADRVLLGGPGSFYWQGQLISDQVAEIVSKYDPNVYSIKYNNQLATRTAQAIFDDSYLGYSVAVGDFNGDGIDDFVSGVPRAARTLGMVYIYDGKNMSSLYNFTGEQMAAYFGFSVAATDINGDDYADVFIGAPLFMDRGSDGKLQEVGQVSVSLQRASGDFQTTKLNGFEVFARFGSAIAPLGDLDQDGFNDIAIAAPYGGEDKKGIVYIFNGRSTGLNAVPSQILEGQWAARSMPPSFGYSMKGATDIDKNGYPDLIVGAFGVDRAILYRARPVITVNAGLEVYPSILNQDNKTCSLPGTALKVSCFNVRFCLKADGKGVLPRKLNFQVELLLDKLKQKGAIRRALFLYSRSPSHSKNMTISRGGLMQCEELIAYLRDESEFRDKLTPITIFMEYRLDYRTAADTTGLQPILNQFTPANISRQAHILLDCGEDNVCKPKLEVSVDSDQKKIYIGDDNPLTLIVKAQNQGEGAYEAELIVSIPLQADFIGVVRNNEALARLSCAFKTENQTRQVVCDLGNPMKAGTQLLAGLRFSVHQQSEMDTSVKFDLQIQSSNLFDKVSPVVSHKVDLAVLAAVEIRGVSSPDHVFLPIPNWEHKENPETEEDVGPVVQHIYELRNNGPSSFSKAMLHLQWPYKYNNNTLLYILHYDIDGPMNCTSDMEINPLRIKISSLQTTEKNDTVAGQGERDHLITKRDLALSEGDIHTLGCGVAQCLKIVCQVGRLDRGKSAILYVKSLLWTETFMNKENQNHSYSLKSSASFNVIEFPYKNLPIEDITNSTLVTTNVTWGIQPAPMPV
αvβ1, sequence (P05556 21-728 limits assumed): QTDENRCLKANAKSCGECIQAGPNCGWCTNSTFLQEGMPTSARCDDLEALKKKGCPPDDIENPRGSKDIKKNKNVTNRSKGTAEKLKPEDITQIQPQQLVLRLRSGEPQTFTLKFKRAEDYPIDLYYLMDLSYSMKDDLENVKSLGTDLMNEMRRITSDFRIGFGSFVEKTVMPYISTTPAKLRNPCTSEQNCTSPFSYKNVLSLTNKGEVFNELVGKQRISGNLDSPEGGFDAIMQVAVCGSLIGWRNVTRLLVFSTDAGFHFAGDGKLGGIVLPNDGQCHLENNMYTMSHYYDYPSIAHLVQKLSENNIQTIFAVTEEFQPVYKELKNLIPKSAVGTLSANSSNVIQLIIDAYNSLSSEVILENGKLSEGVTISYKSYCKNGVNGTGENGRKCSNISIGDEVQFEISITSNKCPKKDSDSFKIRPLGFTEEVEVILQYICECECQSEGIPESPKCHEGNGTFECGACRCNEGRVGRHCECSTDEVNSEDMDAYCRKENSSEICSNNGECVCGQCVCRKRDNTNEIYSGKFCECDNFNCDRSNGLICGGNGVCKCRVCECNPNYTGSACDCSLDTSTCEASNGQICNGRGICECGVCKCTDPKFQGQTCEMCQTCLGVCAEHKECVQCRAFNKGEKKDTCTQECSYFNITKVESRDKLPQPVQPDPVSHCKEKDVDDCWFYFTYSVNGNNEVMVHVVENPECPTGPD
αvβ6, sequence (P06756 31-992 limits assumed): as the sequence (P06756 31-992 limits assumed) above
αvβ6, sequence (P18564 22-707 limits assumed): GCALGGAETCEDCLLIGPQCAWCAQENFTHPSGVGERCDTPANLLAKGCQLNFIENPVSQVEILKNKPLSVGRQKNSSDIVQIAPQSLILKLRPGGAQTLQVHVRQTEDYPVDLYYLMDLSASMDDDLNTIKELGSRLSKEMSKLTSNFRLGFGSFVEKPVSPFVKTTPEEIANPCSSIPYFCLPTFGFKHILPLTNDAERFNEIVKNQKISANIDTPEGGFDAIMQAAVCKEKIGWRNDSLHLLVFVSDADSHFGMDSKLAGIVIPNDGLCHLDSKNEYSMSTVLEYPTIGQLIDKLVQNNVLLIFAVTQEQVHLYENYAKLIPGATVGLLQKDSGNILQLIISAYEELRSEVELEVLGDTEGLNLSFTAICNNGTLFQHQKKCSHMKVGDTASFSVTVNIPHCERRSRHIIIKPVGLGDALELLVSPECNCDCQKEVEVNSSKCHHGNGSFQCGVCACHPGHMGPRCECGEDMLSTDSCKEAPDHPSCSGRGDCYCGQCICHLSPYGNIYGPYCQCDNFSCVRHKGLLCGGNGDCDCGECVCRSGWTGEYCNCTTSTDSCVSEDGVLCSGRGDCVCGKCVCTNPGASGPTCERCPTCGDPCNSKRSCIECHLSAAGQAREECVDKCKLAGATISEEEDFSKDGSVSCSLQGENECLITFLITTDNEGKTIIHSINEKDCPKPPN

The IC50 is the concentration that inhibits the measured activity by half. For `O=C(O)[C@@H](CCO[C@H]1CCCN(CCCc2ccc3c(n2)NCCC3)C1)Nc1ncnc2ccccc12` [Compound 444], the IC50 on αvβ1 and on αvβ6 was over 1000 nM in each case.
For the compound `O=C(O)C[C@@H](CO[C@H]1CCCN(CCCc2ccc3c(n2)NCCC3)C1)c1ccccc1` [Compound 445], the IC50 on αvβ1 and against αvβ6 was 100 to 1000 nM each time.
As for `O=C(O)[C@H](CCO[C@H]1CCCN(CCCc2ccc3c(n2)NCCC3)C1)Nc1ncnc2ccccc12` [Compound 446], the concentration for half-maximal inhibition (IC50) was 100 to 1000 nM against αvβ1 and under 100 nM against αvβ6.
In the case of `O=C(O)[C@H](CCO[C@H]1CCCN(CCCc2ccc3c(n2)NCCC3)C1)NC(=O)C12CCC(CC1)CC2` [Compound 447], the IC50 against αvβ1 and against αvβ6 was under 100 nM in each case.
Turning to `CN1CCc2ccc(S(=O)(=O)N[C@@H](CNC(=O)[C@@H]3CCCN(CCCc4ccc5c(n4)NCCC5)C3)C(=O)O)cc21` [Compound 448], the concentration for half-maximal inhibition (IC50) against αvβ1 and against αvβ6 was under 100 nM in each case.
`O=C(NC[C@@H](Nc1cc(-c2ccccc2)ncn1)C(=O)O)[C@@H]1CCCN(CCCc2ccc3c(n2)NCCC3)C1` [Compound 449]: the half-maximal inhibitory concentration (IC50) against αvβ1 and against αvβ6 was under 100 nM throughout.
Turning to `CN1CCc2cc(S(=O)(=O)N[C@H](CNC(=O)[C@@H]3CCCN(CCCc4ccc5c(n4)NCCC5)C3)C(=O)O)ccc21` [Compound 450], the half-inhibitory concentration (IC50) against αvβ1 was over 1000 nM; against αvβ6 it was 100 to 1000 nM.
For the compound `O=C(NC[C@H](Nc1ncc(C(F)(F)F)cn1)C(=O)O)[C@@H]1CCCN(CCCc2ccc3c(n2)NCCC3)C1` [Compound 451], the half-maximal inhibitory concentration (IC50) against αvβ1 and against αvβ6 was under 100 nM each time.
As to `O=C(O)[C@](O)(CO[C@@H]1CCCN(CCCc2ccc3c(n2)NCCC3)C1)c1ccccc1` [Compound 452], the IC50 against αvβ1 and at αvβ6 was over 1000 nM throughout.
Consider `O=C(O)[C@@](O)(CO[C@@H]1CCCN(CCCc2ccc3c(n2)NCCC3)C1)c1ccccc1` [Compound 453], for which the half-inhibitory concentration (IC50) against αvβ1 and against αvβ6 was over 1000 nM in each case.
As to `O=C(O)[C@@](O)(CO[C@@H]1CCCN(CCCCc2ccc3c(n2)NCCC3)C1)c1ccccc1` [Compound 454], the half-maximal inhibitory concentration (IC50) on αvβ1 and against αvβ6 was over 1000 nM in each case.
Take `O=C(O)[C@](O)(CO[C@@H]1CCCN(CCCCc2ccc3c(n2)NCCC3)C1)c1ccccc1` [Compound 455]: the IC50 against αvβ1 and at αvβ6 was over 1000 nM in each case.
Turning to `O=C(O)C[C@H](CO[C@@H]1CCCN(CCCc2ccc3c(n2)NCCC3)C1)c1cccc(-c2ccccc2)c1` [Compound 456], the IC50 at αvβ1 and against αvβ6 was under 100 nM in each case.
Turning to `O=C(O)C[C@@H](CO[C@@H]1CCCN(CCCc2ccc3c(n2)NCCC3)C1)c1cccc(-c2ccccc2)c1` [Compound 457], the half-maximal inhibitory concentration (IC50) on αvβ1 is over 1000 nM; on αvβ6 it was 100 to 1000 nM.
For `O=C(O)C[C@H](CO[C@@H]1CCCN(CCCc2ccc3c(n2)NCCC3)C1)c1ccc(-c2ccccc2)cc1` [Compound 458], the IC50 against αvβ1 and against αvβ6 was under 100 nM throughout.
`O=C(O)C[C@@H](CO[C@@H]1CCCN(CCCc2ccc3c(n2)NCCC3)C1)c1ccc(-c2ccccc2)cc1` [Compound 459]: the half-inhibitory concentration (IC50) against αvβ1 is over 1000 nM; on αvβ6, 100 to 1000 nM.
As for `O=C(O)C[C@H](CO[C@@H]1CCCN(CCCc2ccc3c(n2)NCCC3)C1)c1ccccc1-c1ccccc1` [Compound 460], the IC50 at αvβ1 and against αvβ6 was over 1000 nM in each case.
For the compound `O=C(O)C[C@@H](CO[C@@H]1CCCN(CCCc2ccc3c(n2)NCCC3)C1)c1ccccc1-c1ccccc1` [Compound 461], the half-inhibitory concentration (IC50) at αvβ1 and against αvβ6 was over 1000 nM each time.
For `O=C(O)C[C@H](CO[C@@H]1CCCN(CCCc2ccc3c(n2)NCCC3)C1)c1cccc(N2C[C@@H]3CC[C@H]2CO3)c1` [Compound 462], the concentration for half-maximal inhibition (IC50) on αvβ1 and against αvβ6 was under 100 nM in each case.
Turning to `O=C(O)C[C@H](CO[C@@H]1CCCN(CCCc2ccc3c(n2)NCCC3)C1)c1cccc(N2C[C@H]3CC[C@@H]2CO3)c1` [Compound 463], the IC50 against αvβ1 and on αvβ6 was 100 to 1000 nM throughout.
With `O=C(O)C[C@@H](CO[C@@H]1CCCN(CCCc2ccc3c(n2)NCCC3)C1)c1cccc(N2C[C@@H]3CC[C@H]2CO3)c1` [Compound 464], the IC50 at αvβ1 and against αvβ6 was 100 to 1000 nM in each case.
Take `O=C(O)C[C@@H](CO[C@@H]1CCCN(CCCc2ccc3c(n2)NCCC3)C1)c1cccc(N2C[C@H]3CC[C@@H]2CO3)c1` [Compound 465]: the 50% inhibitory concentration (IC50) against αvβ1 and on αvβ6 was under 100 nM each time.
For `O=C(N[C@@H](CCO[C@@H]1CCCN(CCCc2ccc3c(n2)NCCC3)C1)C(=O)O)c1c(F)cc(N2CCOC[C@@H]2C(F)(F)F)cc1F` [Compound 466], the IC50 is under 100 nM on αvβ1 and 100 to 1000 nM against αvβ6.
For `O=C(N[C@@H](CCO[C@@H]1CCCN(CCCc2ccc3c(n2)NCCC3)C1)C(=O)O)c1c(F)cc(N2CCOCC2)cc1F` [Compound 467], in that order: under 100 nM and under 100 nM.
`O=C(N[C@@H](CCO[C@@H]1CCCN(CCCc2ccc3c(n2)NCCC3)C1)C(=O)O)c1c(F)cccc1F` [Compound 468]: the half-inhibitory concentration (IC50) against αvβ1 and against αvβ6 was under 100 nM each time.
`O=C(N[C@@H](CCO[C@@H]1CCCN(CCCc2ccc3c(n2)NCCC3)C1)C(=O)O)c1ccccc1` [Compound 469]: the IC50 against αvβ1 and against αvβ6 was under 100 nM each time.
Turning to `O=C(O)[C@H](CCO[C@@H]1CCCN(CCCc2ccc3c(n2)NCCC3)C1)Nc1ncnc2ccsc12` [Compound 470], the IC50 at αvβ1 and at αvβ6 was 100 to 1000 nM in each case.
For `Cc1csc2c(N[C@@H](CCO[C@@H]3CCCN(CCCc4ccc5c(n4)NCCC5)C3)C(=O)O)ncnc12` [Compound 471], the 50% inhibitory concentration (IC50) on αvβ1 and against αvβ6 was 100 to 1000 nM in each case.
In the case of `O=C(O)[C@H](CCO[C@@H]1CCCN(CCCc2ccc3c(n2)NCCC3)C1)Nc1ncnc2sccc12` [Compound 472], the IC50 is over 1000 nM on αvβ1 and under 100 nM against αvβ6.
Take `Cc1csc2ncnc(N[C@@H](CCO[C@@H]3CCCN(CCCc4ccc5c(n4)NCCC5)C3)C(=O)O)c12` [Compound 473]: the IC50 at αvβ1 and at αvβ6 was over 1000 nM in each case.
In the case of `O=C(O)[C@H](CCO[C@@H]1CCCN(CCCc2ccc3c(n2)NCCC3)C1)Nc1ncnc2cc(F)c(F)cc12` [Compound 474], the IC50 against αvβ1 is 100 to 1000 nM; at αvβ6, under 100 nM.
As to `O=C(O)[C@H](CCO[C@@H]1CCCN(CCCc2ccc3c(n2)NCCC3)C1)Nc1ncnc2cc(C(F)(F)F)ccc12` [Compound 475], the IC50 against αvβ1 and against αvβ6 was over 1000 nM throughout.
Turning to `O=C(O)[C@H](CCO[C@@H]1CCCN(CCCc2ccc3c(n2)NCCC3)C1)NC(=O)[C@@H]1CCCN1S(=O)(=O)c1ccccc1` [Compound 476], the IC50 at αvβ1 and on αvβ6 was under 100 nM in each case.
In the case of `O=C(O)[C@@](O)(CO[C@@H]1CCCN(Cc2ccc3c(n2)NCCC3)C1)c1ccccc1` [Compound 477], the IC50 against αvβ1 and at αvβ6 was over 1000 nM in each case.
With `O=C(O)[C@](O)(CO[C@@H]1CCCN(Cc2ccc3c(n2)NCCC3)C1)c1ccccc1` [Compound 478], the 50% inhibitory concentration (IC50) against αvβ1 and at αvβ6 was over 1000 nM in each case.
As to `O=C(N[C@H](CCO[C@@H]1CCCN(CCCc2ccc3c(n2)NCCC3)C1)C(=O)O)c1ccccc1` [Compound 479], the IC50 against αvβ1 and against αvβ6 was 100 to 1000 nM in each case.
For the compound `O=C(N[C@H](CCO[C@@H]1CCCN(CCCc2ccc3c(n2)NCCC3)C1)C(=O)O)c1c(F)cccc1F` [Compound 480], the IC50 against αvβ1 and on αvβ6 was 100 to 1000 nM in each case.
Turning to `O=C(O)C[C@H](CO[C@@H]1CCCN(CCCc2ccc3c(n2)NCCC3)C1)c1cc(C2CC2)ccc1F` [Compound 481], the concentration for half-maximal inhibition (IC50) at αvβ1 and against αvβ6 was under 100 nM each time.
On to `O=C(O)C[C@H](CO[C@@H]1CCCN(CCCc2ccc3c(n2)NCCC3)C1)c1cccc(N2CCCC2=O)c1` [Compound 482], for which the half-inhibitory concentration (IC50) against αvβ1 and at αvβ6 was under 100 nM each time.
Consider `O=C(O)C[C@H](CO[C@@H]1CCCN(CCCc2ccc3c(n2)NCCC3)C1)c1cc(F)cc(C2CC2)c1` [Compound 483], for which the IC50 against αvβ1 and against αvβ6 was under 100 nM throughout.
As to `O=C(O)[C@@H](CCO[C@@H]1CCCN(CCCc2ccc3c(n2)NCCC3)C1)c1ccc(C2CC2)cc1` [Compound 484], the IC50 on αvβ1 and on αvβ6 was over 1000 nM each time.
In the case of `O=C(O)[C@@H](CCO[C@@H]1CCCN(CCCc2ccc3c(n2)NCCC3)C1)c1ccc(F)c(-c2ccccc2)c1` [Compound 485], the IC50 on αvβ1 and against αvβ6 was over 1000 nM in each case.
With `O=C(O)[C@@H](CCO[C@@H]1CCCN(CCCc2ccc3c(n2)NCCC3)C1)c1cccc2c1cnn2CC1CC1` [Compound 486], the IC50 against αvβ1 is 100 to 1000 nM; at αvβ6, under 100 nM.
The corresponding values for `O=C(O)[C@@H](CCO[C@@H]1CCCN(CCCc2ccc3c(n2)NCCC3)C1)c1cccc2nn(CC3CC3)cc12` [Compound 487] are under 100 nM and under 100 nM.
For `O=C(N[C@@H](CCO[C@@H]1CCCN(CCCc2ccc3c(n2)NCCC3)C1)C(=O)O)c1cc(Cl)cc(Cl)c1` [Compound 488], in that order: under 100 nM and under 100 nM.
In the case of `O=C(O)C[C@H](CO[C@@H]1CCCN(CCCc2ccc3c(n2)NCCC3)C1)c1cncc(C2CC2)c1` [Compound 489], the IC50 against αvβ1 and against αvβ6 was under 100 nM throughout.
For the compound `O=C(O)C[C@H](CO[C@@H]1CCCN(CCCc2ccc3c(n2)NCCC3)C1)c1ccnc(C2CC2)c1` [Compound 490], the 50% inhibitory concentration (IC50) against αvβ1 and against αvβ6 was under 100 nM each time.
Regarding `O=C(O)C[C@H](CO[C@@H]1CCCN(CCCc2ccc3c(n2)NCCC3)C1)c1cccc([C@@H]2CCOC2)c1` [Compound 491], the IC50 against αvβ1 and at αvβ6 was under 100 nM throughout.
